Among the data in paper doi:10.1101/2024.02.16.580637v1 (biorxiv, 2024) are Kd values, retold here.

What all share (test): grating-coupled interferometry
Common to all, as to assay type: binding
Common to all, as to conditions: 20 mM Tris/HCl pH 7.5, 150 mM NaCl; mass transport limitation model

Assay [1] deals with T1, BtuG3 (Bacteroides thetaiotaomicron, UniProt Q8A5Z1, A261W).
T1 sequence (Q8A5Z1 34-355 A261W): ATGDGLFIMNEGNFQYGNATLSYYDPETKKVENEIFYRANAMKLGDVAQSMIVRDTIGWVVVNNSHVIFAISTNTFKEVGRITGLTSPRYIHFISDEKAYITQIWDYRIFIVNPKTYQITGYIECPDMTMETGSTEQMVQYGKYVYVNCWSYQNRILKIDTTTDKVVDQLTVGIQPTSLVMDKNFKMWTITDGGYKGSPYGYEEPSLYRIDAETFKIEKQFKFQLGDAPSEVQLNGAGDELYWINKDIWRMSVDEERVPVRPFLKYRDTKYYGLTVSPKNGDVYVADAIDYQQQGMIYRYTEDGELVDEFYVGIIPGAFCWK

Assay [2] addresses T2, BtuG1 (Bacteroides thetaiotaomicron, UniProt Q8A7N4).
T2 sequence (Q8A7N4 28-442): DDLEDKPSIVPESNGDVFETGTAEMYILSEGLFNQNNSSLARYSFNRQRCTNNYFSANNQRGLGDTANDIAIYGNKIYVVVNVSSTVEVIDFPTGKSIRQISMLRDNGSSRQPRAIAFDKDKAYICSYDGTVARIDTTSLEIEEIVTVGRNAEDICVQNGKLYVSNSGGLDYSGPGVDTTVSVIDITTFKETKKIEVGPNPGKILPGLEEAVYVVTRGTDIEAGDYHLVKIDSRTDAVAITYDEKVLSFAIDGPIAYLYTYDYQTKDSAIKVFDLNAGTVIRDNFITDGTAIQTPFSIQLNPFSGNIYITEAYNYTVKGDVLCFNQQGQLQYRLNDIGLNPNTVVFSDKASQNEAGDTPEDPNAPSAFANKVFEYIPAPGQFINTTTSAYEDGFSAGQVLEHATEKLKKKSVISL

The target of assay [3] is T3, BtuG3 (Bacteroides thetaiotaomicron, UniProt Q8A5Z1).
T3 sequence (Q8A5Z1 34-355): T1 sequence (Q8A5Z1 34-355 A261W)

Assay [4] addresses T4, BtuG2 (Bacteroides thetaiotaomicron, UniProt Q8A6D0).
T4 sequence (Q8A6D0 47-366): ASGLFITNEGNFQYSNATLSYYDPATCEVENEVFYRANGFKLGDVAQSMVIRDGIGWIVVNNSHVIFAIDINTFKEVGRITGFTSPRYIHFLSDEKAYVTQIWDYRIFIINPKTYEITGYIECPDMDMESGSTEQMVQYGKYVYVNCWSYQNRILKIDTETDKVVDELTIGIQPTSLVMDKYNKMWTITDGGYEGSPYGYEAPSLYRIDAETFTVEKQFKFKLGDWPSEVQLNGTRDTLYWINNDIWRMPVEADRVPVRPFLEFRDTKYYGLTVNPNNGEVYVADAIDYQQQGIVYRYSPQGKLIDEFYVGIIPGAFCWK

Molecules are shown by their SMILES.

In the case of `C/C1=C2/[N-][C@H]([C@H](CC(N)=O)[C@@]2(C)CCC(=O)NC[C@@H](C)OP(=O)([O-])O[C@H]2[C@@H](O)[C@@H](n3cnc4cc(C)c(C)cc43)O[C@@H]2CO)[C@]2(C)N=C(/C(C)=C3N=C(/C=C4N=C1[C@@H](CCC(N)=O)C\4(C)C)[C@@H](CCC(N)=O)[C@]\3(C)CC(N)=O)[C@@H](CCC(N)=O)[C@]2(C)CC(N)=O.[Co+3].[OH-]` [OHCbl, hydroxycobalamin], the Kd was 1.4 · 10^-10 M in assay [1], 3.0 · 10^-12 M in assay [2], 2.8 · 10^-11 ± 3.9 · 10^-11 M in assay [3] and 2.2 · 10^-12 M in assay [4].
